This passage reports Kd, Activity and IC50 results from ChEMBL document CHEMBL1138469, “Structural basis for inhibitor specificity in human poly(ADP-ribose) polymerase-3” (J Med Chem, 2009).

For assay [1], the target named is T1, Protein mono-ADP-ribosyltransferase PARP3 (Homo sapiens, UniProt Q9Y6F1).
T1 sequence (Q9Y6F1 whole entry): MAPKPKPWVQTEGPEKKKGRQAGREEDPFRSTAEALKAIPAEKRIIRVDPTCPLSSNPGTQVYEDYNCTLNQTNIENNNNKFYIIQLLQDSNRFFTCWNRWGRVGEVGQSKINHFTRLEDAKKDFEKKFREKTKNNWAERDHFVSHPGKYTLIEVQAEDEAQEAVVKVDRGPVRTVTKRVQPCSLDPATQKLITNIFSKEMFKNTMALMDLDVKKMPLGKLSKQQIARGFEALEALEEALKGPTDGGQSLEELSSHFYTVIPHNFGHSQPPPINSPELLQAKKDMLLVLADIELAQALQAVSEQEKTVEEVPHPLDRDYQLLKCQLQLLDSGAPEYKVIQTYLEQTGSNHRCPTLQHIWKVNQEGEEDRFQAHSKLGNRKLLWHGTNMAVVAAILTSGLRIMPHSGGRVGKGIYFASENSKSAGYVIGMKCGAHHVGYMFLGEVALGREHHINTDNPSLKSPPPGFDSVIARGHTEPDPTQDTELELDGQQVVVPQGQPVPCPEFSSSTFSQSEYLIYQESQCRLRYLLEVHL
In words: Binding affinity to human PARP3 PARP domain by isothermal titration […].

The target in assay [2] is T2, Protein mono-ADP-ribosyltransferase PARP3 (Homo sapiens) (UniProt Q9Y6F1).
T2 sequence (whole entry): T1 sequence (Q9Y6F1 whole entry)
In words: Inhibition of human PARP3 auto-ADP ribosylation by Western blotting.

Assay [3] deals with T3, Poly [ADP-ribose] polymerase 1 (Homo sapiens, UniProt P09874). As to the kind of experiment: Inhibition of human PARP1.
T3 sequence (P09874 whole entry): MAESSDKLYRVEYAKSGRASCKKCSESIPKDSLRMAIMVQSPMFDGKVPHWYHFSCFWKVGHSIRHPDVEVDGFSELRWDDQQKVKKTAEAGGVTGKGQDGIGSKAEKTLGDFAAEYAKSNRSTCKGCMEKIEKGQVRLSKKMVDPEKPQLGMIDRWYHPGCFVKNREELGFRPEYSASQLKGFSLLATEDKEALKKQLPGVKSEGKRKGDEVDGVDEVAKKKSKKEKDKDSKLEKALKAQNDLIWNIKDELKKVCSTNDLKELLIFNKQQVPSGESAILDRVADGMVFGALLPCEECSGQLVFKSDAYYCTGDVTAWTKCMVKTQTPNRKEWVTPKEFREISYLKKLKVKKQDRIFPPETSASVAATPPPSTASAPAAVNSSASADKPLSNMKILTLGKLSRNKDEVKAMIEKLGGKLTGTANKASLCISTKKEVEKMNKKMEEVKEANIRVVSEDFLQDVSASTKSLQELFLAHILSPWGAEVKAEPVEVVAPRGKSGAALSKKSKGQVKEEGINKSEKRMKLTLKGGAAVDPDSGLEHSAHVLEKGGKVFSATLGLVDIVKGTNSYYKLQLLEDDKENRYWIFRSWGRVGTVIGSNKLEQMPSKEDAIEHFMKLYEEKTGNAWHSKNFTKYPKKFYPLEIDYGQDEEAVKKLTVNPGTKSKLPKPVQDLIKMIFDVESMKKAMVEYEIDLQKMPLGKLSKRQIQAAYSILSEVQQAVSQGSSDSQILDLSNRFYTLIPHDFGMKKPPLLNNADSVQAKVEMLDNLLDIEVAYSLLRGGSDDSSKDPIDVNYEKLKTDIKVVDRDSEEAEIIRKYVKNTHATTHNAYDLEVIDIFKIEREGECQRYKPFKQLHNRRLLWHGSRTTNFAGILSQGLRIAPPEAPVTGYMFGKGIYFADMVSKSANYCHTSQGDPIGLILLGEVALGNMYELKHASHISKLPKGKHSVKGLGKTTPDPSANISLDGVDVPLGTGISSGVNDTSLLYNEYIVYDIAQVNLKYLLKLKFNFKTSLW
Assay [4] deals with T3, Poly [ADP-ribose] polymerase 1.
Description: Binding affinity to human PARP1 by isothermal titration colorimetry

The source made the active and inactive calls. No cut-off for these calls is given here. Where only a bound is given, the exact number is not on record here.

On to `Nc1cccc(C(=O)O)c1` [3-AMINOBENZOIC ACID], for which the Kd in assay [1] was more than 2000 nM.

`O=C(c1cc(Cc2n[nH]c(=O)c3ccccc23)ccc1F)N1CCCNCC1`: in assay [2], the result was Active. The 50% inhibitory concentration (IC50) in assay [3] was 3.4 nM. The Kd in assay [4] amounted to 19 nM.
